Holding throughout (type): cell-based
For one assay, the system named is α-TC1 clone 9 cells. The settings on record: for Glucagon Secretion % Inhibition: veratridine-induced (30 μM for 1 hour), at a given concentration (not given). Here is the method: (§1) Voltage-dependent block (VDB) of […] was determined by whole-cell voltage-clamp recordings of sodium current using a QPatch 16× automated electrophysiological system in HEK 293 cells overexpressing Nav 1.3 and Nav 1.7 sodium channels, respectively. VDB of peak current was measured using an 8 s conditioning prepulse (to -55 mV for NaV1.3 and to −60 mV for […]) followed by a test pulse (0 mV, 20 ms). Currents are normalized to the peak current recorded in the absence of drug and expressed as percent inhibition. […] Glucagon secretion in the cells was induced by the treatment with veratridine at 30 μM for 1 hour in Krebs-Ringer buffer containing 0.1% BSA. Percent inhibition of glucagon secretion by Na channel blockers was calculated from the reduction of veratridine-induced glucagon secretion in the absence of drug.
Cells were seeded at 0.4×10^5/well in 96-well plates and allowed to recover for 1 day. The media was then changed to serum-free DMEM and incubated overnight. Cells were then treated with sodium-channel blockers in the presence of veratridine (15 μM) in Krebs-Ringer buffer containing 0.1% BSA and 3 mM glucose for 1 h. Supernatants were collected and stored at −80° C. until analysis. Glucagon levels were measured by an ELISA kit.

For a further assay, the target named is hNaV1.7 (Homo sapiens, UniProt Q15858). Put plainly: Voltage-dependent block (VDB) of hNaV1.7, QPatch whole-cell voltage-clamp in HEK-293 cells. The settings on record: 8 s prepulse to −60 mV; at a given concentration (not given). Here is the method: as §1
Chain of hNaV1.7 (Q15858 1-1977 isoform Q15858-3): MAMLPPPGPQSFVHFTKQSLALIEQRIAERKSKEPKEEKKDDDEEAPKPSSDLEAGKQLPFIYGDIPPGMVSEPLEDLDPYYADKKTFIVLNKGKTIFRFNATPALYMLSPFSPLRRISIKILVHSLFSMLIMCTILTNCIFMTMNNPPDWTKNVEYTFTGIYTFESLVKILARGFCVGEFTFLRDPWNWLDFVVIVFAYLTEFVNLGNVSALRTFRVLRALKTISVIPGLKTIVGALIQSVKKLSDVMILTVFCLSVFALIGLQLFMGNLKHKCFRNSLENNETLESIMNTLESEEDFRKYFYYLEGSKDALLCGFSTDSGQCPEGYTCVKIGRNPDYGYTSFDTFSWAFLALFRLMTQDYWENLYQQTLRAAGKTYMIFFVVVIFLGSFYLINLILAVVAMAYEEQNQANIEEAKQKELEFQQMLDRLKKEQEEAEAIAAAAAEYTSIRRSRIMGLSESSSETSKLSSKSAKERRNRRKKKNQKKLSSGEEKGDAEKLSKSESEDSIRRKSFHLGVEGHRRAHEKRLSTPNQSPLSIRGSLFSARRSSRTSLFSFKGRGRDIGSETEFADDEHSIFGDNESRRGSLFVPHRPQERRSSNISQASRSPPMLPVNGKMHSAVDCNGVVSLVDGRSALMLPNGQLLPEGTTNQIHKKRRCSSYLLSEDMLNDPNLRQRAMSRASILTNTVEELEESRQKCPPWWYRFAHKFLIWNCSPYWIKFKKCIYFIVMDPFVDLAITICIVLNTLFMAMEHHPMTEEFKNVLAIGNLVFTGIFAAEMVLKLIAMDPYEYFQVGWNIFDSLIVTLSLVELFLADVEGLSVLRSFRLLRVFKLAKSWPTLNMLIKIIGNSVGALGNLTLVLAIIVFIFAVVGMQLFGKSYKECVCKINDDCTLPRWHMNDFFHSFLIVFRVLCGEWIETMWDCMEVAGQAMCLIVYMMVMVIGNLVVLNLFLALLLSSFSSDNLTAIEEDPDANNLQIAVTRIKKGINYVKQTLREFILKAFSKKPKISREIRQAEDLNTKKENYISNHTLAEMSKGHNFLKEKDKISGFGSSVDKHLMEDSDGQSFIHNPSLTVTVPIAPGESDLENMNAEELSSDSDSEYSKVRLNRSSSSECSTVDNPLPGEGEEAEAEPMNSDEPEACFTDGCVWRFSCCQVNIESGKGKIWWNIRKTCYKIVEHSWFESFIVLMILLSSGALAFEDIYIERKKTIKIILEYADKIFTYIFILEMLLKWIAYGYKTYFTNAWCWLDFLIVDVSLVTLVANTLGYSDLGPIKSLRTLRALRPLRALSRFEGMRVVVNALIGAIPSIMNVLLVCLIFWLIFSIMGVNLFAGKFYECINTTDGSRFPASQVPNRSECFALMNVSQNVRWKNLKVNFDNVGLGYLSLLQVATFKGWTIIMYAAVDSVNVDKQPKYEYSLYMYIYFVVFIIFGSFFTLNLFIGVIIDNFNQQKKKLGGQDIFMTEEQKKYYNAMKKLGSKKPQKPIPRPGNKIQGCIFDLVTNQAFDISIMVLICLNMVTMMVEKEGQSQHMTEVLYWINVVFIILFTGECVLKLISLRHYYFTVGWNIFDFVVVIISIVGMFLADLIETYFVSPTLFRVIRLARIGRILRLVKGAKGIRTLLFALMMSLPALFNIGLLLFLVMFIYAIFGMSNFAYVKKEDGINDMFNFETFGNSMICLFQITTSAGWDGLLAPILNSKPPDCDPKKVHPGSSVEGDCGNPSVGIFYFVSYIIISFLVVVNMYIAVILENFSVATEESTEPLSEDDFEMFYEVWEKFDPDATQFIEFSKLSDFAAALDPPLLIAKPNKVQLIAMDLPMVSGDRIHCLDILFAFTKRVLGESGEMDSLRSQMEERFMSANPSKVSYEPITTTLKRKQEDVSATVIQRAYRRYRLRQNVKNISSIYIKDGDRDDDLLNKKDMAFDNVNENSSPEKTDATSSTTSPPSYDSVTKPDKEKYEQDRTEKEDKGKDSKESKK
Chain of hNaV1.7 (Q07699 19-218 partner): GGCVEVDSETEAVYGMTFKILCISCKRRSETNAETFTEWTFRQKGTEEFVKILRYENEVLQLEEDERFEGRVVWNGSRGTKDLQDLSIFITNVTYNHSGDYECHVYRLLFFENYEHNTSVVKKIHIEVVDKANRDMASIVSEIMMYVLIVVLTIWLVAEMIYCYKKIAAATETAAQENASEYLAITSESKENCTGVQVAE
The cells were continuously maintained in a humidified, 5% CO2 atmosphere at 37° C. in MEM growth medium supplemented with 10% FBS, 2 mM L-glutamine, 100 U/mL penicillin, 100 μg/mL streptomycin, 0.6 mg/mL G418 and 2 μg/mL blastocydin.
(§2) Whole-cell voltage-clamp recordings were used to measure the activity of test compounds against hNaV1.3 and hNaV1.7. Sodium currents were recorded at room temperature using a QPatch 16× automated electrophysiological system (Sophion Bioscience, Copenhagen, Denmark). Cells were washed with PBS and then incubated with Detachin for 2 minutes at room temperature. Cells were then resuspended in growth media, pelleted by centrifugation and resuspended in CHO-S-SFM II serum free media supplemented with 100 U/mL penicillin, 100 μg/mL streptomycin and 10 mM HEPES. The cells were allowed to recover for 30 min at room temperature with constant stirring and then loaded into the QPatch cell holder.
(§3) The cells were loaded into primed single hole (2 MΩ) large QPlates and the whole-cell configuration was established using the default protocol. Cells were allowed to stabilize for 10 min after establishment of the whole-cell configuration before current was measured. […] All currents are low-pass Bessel filtered at 5 kHz and digitized at 50 kHz.
(§4) Specific voltage-clamp protocols assessing voltage-dependent block (VDB, also termed state-dependent block) are used. VDB of peak current was measured following an 8 s conditioning prepulse (to -55 mV for NaV1.3 and to −60 mV for NaV1.7) followed by a test pulse to 0 mV (20 ms). An interpulse (−120 mV, 10 ms) was used to recover non-drug bound channels from fast inactivation. The prepulse potential was determined by the steady-state inactivation curves for NaV1.3 and NaV1.7. […] Multiple applications of drug were used to ensure complete solution exchange and the cells were allowed to stabilize in the drug containing solution for two minutes. Currents were normalized to the peak current recorded in the absence of drug and expressed as percent inhibition.
A general note: The patch-clamp technique gives a direct electrical read-out from membranes.

In a further assay the test system is human pancreatic islets. Put plainly: Veratridine-induced glucagon secretion in human pancreatic islets. The settings on record: veratridine 30 μM.
The target in the next assay is T1, hNaV1.3 (Homo sapiens, UniProt Q9NY46).
T1 construct: (Vanderbilt University, Nashville, Tenn.)
T1 sequence (Q9NY46 1-1951 isoform Q9NY46-4): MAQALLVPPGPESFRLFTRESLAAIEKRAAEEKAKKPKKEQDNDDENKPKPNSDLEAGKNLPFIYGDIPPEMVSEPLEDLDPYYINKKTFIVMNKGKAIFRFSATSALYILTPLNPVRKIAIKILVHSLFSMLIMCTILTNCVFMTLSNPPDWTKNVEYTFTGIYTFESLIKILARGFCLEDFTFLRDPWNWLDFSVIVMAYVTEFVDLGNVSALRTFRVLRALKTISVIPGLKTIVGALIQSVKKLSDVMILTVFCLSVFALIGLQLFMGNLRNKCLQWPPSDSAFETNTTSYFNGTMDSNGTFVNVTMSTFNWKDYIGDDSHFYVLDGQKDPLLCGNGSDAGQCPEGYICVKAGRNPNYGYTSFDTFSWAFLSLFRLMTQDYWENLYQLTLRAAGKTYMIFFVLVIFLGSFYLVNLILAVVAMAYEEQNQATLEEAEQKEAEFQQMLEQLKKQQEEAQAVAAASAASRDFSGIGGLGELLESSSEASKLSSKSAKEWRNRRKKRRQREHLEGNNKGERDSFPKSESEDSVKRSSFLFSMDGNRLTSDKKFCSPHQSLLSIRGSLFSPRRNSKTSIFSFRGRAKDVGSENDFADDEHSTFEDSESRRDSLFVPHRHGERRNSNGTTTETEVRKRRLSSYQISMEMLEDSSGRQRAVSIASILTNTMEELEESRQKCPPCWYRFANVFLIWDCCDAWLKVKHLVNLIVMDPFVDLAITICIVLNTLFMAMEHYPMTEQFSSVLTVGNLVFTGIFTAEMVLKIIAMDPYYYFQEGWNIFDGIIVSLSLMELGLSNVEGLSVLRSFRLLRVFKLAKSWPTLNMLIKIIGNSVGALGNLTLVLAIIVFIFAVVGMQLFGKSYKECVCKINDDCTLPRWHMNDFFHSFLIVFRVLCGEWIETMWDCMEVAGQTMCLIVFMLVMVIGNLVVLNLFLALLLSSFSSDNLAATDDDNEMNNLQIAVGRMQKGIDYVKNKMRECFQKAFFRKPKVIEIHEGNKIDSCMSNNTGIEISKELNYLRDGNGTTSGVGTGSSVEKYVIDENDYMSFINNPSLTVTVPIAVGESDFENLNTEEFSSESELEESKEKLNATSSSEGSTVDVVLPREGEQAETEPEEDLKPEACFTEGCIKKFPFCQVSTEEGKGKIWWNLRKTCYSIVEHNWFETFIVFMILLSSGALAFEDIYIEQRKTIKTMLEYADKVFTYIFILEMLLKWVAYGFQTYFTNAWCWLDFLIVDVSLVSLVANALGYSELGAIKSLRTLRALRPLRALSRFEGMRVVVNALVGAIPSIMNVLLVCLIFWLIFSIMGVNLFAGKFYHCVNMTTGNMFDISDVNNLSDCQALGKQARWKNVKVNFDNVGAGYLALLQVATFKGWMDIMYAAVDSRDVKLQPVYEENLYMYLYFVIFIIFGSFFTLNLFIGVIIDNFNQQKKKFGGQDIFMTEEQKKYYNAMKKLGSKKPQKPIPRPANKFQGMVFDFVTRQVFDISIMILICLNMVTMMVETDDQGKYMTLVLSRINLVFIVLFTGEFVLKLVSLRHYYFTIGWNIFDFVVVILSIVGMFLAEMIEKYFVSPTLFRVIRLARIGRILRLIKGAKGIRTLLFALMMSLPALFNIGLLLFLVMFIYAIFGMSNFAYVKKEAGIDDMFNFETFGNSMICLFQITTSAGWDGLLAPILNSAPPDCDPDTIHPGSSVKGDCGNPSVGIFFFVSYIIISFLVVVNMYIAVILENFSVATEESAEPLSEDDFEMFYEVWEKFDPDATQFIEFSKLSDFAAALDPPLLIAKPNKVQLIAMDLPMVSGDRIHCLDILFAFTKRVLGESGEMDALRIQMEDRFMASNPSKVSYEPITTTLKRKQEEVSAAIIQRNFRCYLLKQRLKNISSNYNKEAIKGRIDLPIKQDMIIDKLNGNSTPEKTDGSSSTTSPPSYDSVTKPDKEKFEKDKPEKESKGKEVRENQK
T1 sequence (Q07699 19-218 partner): as the sequence (Q07699 19-218 partner) above
T1 sequence (O60939 30-215 partner): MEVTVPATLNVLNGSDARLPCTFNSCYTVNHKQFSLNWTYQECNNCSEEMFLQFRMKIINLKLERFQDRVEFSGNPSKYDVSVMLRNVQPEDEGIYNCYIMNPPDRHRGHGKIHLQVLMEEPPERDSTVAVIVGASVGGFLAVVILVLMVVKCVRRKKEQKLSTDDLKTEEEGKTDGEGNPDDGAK
Put plainly: Voltage-dependent block (VDB) of hNaV1.3, QPatch whole-cell voltage-clamp in HEK-293 cells. The settings on record: 8 s prepulse to -55 mV; at a given concentration (not given). The protocol: as §1
(Vanderbilt University, Nashville, Tenn.). The cells were continuously maintained in a humidified, 5% CO2 atmosphere at 37° C. in DMEM high glucose growth medium supplemented with 10% FBS, 2 mM L-glutamine, 100 U/mL penicillin, 100 μg/mL streptomycin, 1 mg/mL G418 and 3 μg/mL puromycin.
as §2, §3, §4

Assay [1] concerns rat pancreatic islets. Briefly: Veratridine-induced glucagon secretion in rat pancreatic islets. The settings on record: veratridine 30 μM.
Assay [2] has as its system rat pancreatic islets. Briefly: Arginine-induced glucagon secretion in rat pancreatic islets. The settings on record: L-arginine 20 mM.

Structures are written as SMILES.

With `FC(F)(F)Oc1ccc(-c2ccc3nnc(C(F)(F)F)n3c2)cc1` [Compound A, 6-(4-(trifluoromethoxy)phenyl)-3-(trifluoromethyl)-[1,2,4]triazolo[4,3-α]pyridine], in the assay on α-TC1 clone 9 cells (veratridine 15 μM, at 3 μM), the “reduction of veratridine-induced increase of glucagon secretion” value is 70±4%. In the assay on α-TC1 clone 9 cells, the “Glucagon Secretion % Inhibition” value was 74.17%. Besides, the “hNav1.7 VDB % Inhibition” value on hNaV1.7 stood at 87.17%. Moreover, the “reduction of veratridine-induced glucagon secretion” value with human pancreatic islets (at 3 μM) is recorded as 58±7%. Besides, the “hNav1.3 VDB % Inhibition” value at hNaV1.3 turned out to be 65.42%. The “reduction of veratridine-induced glucagon secretion (in words)” value with rat pancreatic islets [1] was “concentration-dependently reduced”. Further, the “reduction of L-arginine-induced increase in glucagon secretion” value in the assay on rat pancreatic islets [2] (at 1 μM) came to 24±6%.
Take `COc1ccccc1OCC(O)CN1CCN(CC(=O)Nc2c(C)cccc2C)CC1` (racemic) [Ranolazine, ±-N-(2,6-dimethylphenyl)-4-[2-hydroxy-3-(2-methoxyphenoxy)-propyl]-1-piperazineacetamide]: in the assay on α-TC1 clone 9 cells, the “Glucagon Secretion % Inhibition” value is 29.99%. On hNaV1.7, the “hNav1.7 VDB % Inhibition” value amounted to 17.23%. In addition, in the assay on human pancreatic islets (at 30 μM), the “reduction of veratridine-induced glucagon secretion” value is listed as 36±9%. Moreover, the “hNav1.3 VDB % Inhibition” value at hNaV1.3 came out at 11.21%. Further, the “reduction of veratridine-induced glucagon secretion (in words)” value in the assay with rat pancreatic islets [1] is “concentration-dependently reduced”. Further, the “reduction of L-arginine-induced increase in glucagon secretion” value in the assay on rat pancreatic islets [2] (at 10 μM) came to 31±9%.

These data come from patent US20140221286A1, “SODIUM CHANNEL BLOCKERS REDUCE GLUCAGON SECRETION” (Gilead Sciences, Inc., priority 2011, published 2014).
